Measured values published in patent US20240122178A1, “CAFFEIC ACID-BASED COMPOSITE MATERIAL AND PREPARATION METHOD THEREOF” (ZHEJIANG UNIVERSITY, priority 2021, published 2024).

Assay: caffeic acid loading rate of carrier incubated with caffeic acid solution in ethanol
Type: physicochemical
Settings: optimal loading conditions: molar ratio γ-cyclodextrin to caffeic acid 1:64, loading time 900 minutes, 40° C.
Procedure: In one embodiment, under the conditions of reaction temperature of 40° C. and reaction time of 900 minutes, the effects of different ratios of the cyclodextrin metal-organic framework material to caffeic acid (a molar ratio of γ-cyclodextrin in the cyclodextrin metal-organic framework material to caffeic acid is 1:4, 1:8, 1:32, 1:64 and 1:128, respectively) on the caffeic acid loading rate are compared. From the results, it can be seen that when the molar ratio of γ-cyclodextrin to caffeic acid in the cyclodextrin metal-organic framework composite is 1:4, the caffeic acid loading rate […]; with the increase of caffeic acid dosage, the caffeic acid loading rate gradually increases, and the increase of the loading rate is no longer obvious after increasing to 1:64. Therefore, the molar ratio of γ-cyclodextrin in the cyclodextrin metal-organic framework material to caffeic acid is selected from 1:4 to 1:128, further from 1:32 to 1:128, further from […], still further from 1: 60-70, and most preferably is 1:64.
In one embodiment, the effects of different incubating time (10, 20, 60, 180, 360, 720, 900, 2160 minutes) on the caffeic acid loading rate are compared under the conditions: the molar ratio of γ-cyclodextrin in the cyclodextrin metal-organic framework material to caffeic acid being 1:64 and the reaction temperature being 40° C. […]

- caffeic acid loading rate: 7.28%
SMILES: OC[C@H]1O[C@@H]2O[C@H]3[C@H](O)[C@@H](O)[C@@H](O[C@H]4[C@H](O)[C@@H](O)[C@@H](O[C@H]5[C@H](O)[C@@H](O)[C@@H](O[C@H]6[C@H](O)[C@@H](O)[C@@H](O[C@H]7[C@H](O)[C@@H](O)[C@@H](O[C@H]8[C@H](O)[C@@H](O)[C@@H](O[C@H]9[C@H](O)[C@@H](O)[C@@H](O[C@H]1[C@H](O)[C@H]2O)O[C@@H]9CO)O[C@@H]8CO)O[C@@H]7CO)O[C@@H]6CO)O[C@@H]5CO)O[C@@H]4CO)O[C@@H]3CO [γ-cyclodextrin]
